Data on two compounds can be found in patent US4372948A, “Derivative of saccharide and physiologically active agent containing the same” (Kureha Kagaku Kogyo Kabushiki Kaisha, priority 1980, dated 1983).

In data set [1] the test system is Bacillus subtilis strain H17. The data set can be described thus: Mutagenicity, Rec-Assay, recombination repair retaining strain. Conditions: 10 microgram/disk. On the procedure: (§1) Then, a solution or suspension of each of the present compounds was absorbed on a round sheet of paper (disk) of 8 mm in diameter in an amount of 0.04 ml and the disk was placed on the culture plate so as to cover the starting points of the streaks of the micro-organism's culture.

Data set [2] relates to Bacillus subtilis strain M45. Put plainly: Mutagenicity, Rec-Assay, recombination repair deficient strain. Conditions: 10 microgram/disk. On the procedure:
as §1

Data set [3] concerns foot pad reaction to sheep erythrocyte. Put plainly: Delayed-type intracutaneous reaction (foot pad reaction, cellular immunity). The data set is classed as in vivo, mouse (ICR-JCL). Conditions: same dose (250 mg/kg/day) intraperitoneally. On the procedure: In order to know the influence of the present compounds on the cellular immunity, a foot pad reaction test was carried out by using ICR-JCL mice as experimental animals and sheep erythrocyte as an antigen as follows:
Sheep erythrocytes were suspended in a physiological saline solution at a concentration of 10% by volume and 0.2 ml of the suspension was injected into the caudal vein of each mouse for the primary sensitization, and after 7 days, a 40% by volume suspension of the erythrocytes in physiological saline solution was injected into the foot pad of the mouse for the challenge. The thickness of the injected foot pad was measured on the next day. One of the present compounds was administered intraperitoneally at dose of 250 mg/kg/day once a day for continued 5 days around the day of the first sensitization as a center.

Take `NC[C@H]1O[C@H](O[C@H]2[C@H](O)[C@@H](O[C@H]3O[C@H](CO)[C@@H](O)[C@H](N)[C@H]3O)[C@H](N)C[C@@H]2N)[C@H](O)[C@@H](O)[C@@H]1O` [Kanamycin]: in data set [1], the “Length of growth inhibition H17” value was 3 mm. Besides, in data set [2], the “Length of growth inhibition M45” value is given as 6 mm. Moreover, the “Difference of growth inhibition (M45, H17)” value in data set [2] (M45 minus H17) came to 3 mm.

As to `CO[C@@]12[C@H](COC(N)=O)C3=C(C(=O)C(C)=C(N)C3=O)N1C[C@@H]1N[C@@H]12` [Mitomycin C, mitomycin C], the “mortality in foot pad reaction test” value in data set [3] is “died”.
